Literature values as cited in patent US4703106A, “Novel polypeptide and process for producing the same” (Mitsubishi Petrochemical Co., Ltd., priority 1984, dated 1987).
Positions of bridges follow the written chain, without caps; N, C: chain ends. No end group written: not given here.

Tested on: Ca^2+ concentration in blood
Conditions: published as Japanese Provisional Patent Publication No. 123500/1985

Substance: chicken CT: calcitonin extracted and purified from the ultimobranchial glands of chickens, formula (I) (CASLSTCVLGKLSQELHKLQTYPRTDVGAGTP-NH2; disulfide 1-7; ends not checked; UniProt P07660 82-113, looked up)
- biological activity relative to CT's of cyclostomata and fish: equal to or higher than CT's of cyclostomata and fish
